Experimental data taken from article PMC8219695 (Nature Communications, 2021).
Several values for one entry are separate records, joined by “and”; a condition that tells them apart may be missing. Equal values may be shown once.

Experiments:
rKOR = target: T1, rKOR (Rattus norvegicus, UniProt P34975); test: CAMYEL BRET cAMP agonist assay at rKOR; assay type: cell-based; settings: individual replicates, Supplementary Figure 8B source data
T1 construct: expressed in transfected cells

hMOR = target: T2, hMOR (Homo sapiens, UniProt P35372); test: cell-based
T2 construct: expressed in transfected cells; plasmid a gift from Dr. Nevin Lambert

hDOR = hDOR (Homo sapiens, UniProt P41143); test: CAMYEL BRET cAMP agonist assay at hDOR; assay type: cell-based; settings: for Agonist activity of 7OH analogs at hDOR: single replicate values, Supplementary Figure 7A
mMOR [1] = target: T3, mMOR (Mus musculus, UniProt P42866); test: CAMYEL BRET antagonism assay at mMOR (inhibition of DAMGO); assay type: cell-based; settings: for Antagonist activity at mMOR, raw signal (single replicate values): source data of Fig 8a and Table 5, listed as C11-Cl-7OH (23);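 as to Antagonist activity at mMOR, raw signal (single replicate values): BRET signal rises as cAMP falls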
T3 construct: signal peptide (heterologous, not specified) (N); expressed in transfected cells; pcDNA3.1(+) construct made in house

mMOR [2] = target: T3, mMOR; test: CAMYEL BRET cAMP agonist assay at mMOR; assay type: cell-based; settings: mMOR; for cAMP %: single replicates, source data Fig 6b, listed as C11-Cl-7OH (23)

Chain of hDOR (P41143 whole entry): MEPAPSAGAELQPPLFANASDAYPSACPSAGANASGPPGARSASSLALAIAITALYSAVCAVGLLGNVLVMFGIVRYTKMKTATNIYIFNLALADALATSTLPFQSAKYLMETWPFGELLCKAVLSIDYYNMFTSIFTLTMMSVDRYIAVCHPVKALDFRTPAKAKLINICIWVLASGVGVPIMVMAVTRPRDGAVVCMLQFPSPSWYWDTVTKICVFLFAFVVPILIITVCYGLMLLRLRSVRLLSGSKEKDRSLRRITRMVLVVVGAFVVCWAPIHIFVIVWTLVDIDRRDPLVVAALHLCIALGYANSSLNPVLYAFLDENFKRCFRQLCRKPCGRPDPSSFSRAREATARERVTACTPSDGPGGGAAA
T1 sequence (P34975 whole entry): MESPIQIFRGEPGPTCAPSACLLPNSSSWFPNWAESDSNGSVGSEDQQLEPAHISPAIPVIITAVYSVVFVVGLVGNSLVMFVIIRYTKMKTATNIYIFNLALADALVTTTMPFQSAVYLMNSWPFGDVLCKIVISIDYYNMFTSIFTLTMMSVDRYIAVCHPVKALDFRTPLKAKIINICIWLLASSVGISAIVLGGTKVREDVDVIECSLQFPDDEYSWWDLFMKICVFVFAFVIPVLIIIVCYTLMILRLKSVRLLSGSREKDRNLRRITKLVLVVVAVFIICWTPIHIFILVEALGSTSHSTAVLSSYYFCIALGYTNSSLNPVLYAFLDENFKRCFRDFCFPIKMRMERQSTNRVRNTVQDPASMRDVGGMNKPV
T3 sequence (P42866 whole entry): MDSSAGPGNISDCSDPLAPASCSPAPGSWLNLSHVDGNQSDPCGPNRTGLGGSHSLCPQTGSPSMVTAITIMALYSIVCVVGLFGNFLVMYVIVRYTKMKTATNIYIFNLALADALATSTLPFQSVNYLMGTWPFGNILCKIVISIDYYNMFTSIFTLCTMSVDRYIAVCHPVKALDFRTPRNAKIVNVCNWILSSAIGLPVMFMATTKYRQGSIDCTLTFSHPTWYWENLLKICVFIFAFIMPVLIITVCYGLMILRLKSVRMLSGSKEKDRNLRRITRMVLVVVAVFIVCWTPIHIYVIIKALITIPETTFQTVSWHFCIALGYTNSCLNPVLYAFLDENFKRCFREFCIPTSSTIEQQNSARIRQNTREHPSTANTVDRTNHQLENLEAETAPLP
T2 sequence (P35372 whole entry): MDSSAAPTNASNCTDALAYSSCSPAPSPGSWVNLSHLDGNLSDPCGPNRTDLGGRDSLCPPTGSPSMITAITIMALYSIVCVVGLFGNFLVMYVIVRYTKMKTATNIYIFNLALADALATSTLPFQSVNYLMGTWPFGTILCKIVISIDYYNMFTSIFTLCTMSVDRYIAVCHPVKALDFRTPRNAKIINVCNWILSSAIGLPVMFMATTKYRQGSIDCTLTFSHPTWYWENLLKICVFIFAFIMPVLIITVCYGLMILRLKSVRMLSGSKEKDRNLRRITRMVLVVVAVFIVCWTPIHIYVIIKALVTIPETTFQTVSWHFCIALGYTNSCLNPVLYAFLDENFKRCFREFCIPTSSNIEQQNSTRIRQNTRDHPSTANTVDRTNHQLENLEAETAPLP

CC[C@@H]1CN2CC[C@@]3(O)C(=Nc4cc(Cl)cc(OC)c43)[C@@H]2C[C@@H]1/C(=C\OC)C(=O)OC [11-Cl-7OH (23), 11-Cl-7OH]
Agonist activity of 7OH analogs at rKOR (rKOR; Log [drug](M) -7): 11.5045 and -0.8261 and -10.6783 and 7.768 and -4.174 and 5.42 and 2.7074 and 2.952 and 8.478
Agonist activity of 7OH analogs at rKOR (rKOR; Log [drug](M) -8): 0.508 and -0.7332 and 4.656 and 8.713 and 2.1745 and 4.589 and 10.047 and 0.1108 and 9.912
Agonist activity of 7OH analogs at rKOR (rKOR; Log [drug](M) -9): 6.738 and 3.9698 and 11.9053 and 20.8557 and 20.3344 and 22.4492 and 3.132 and -0.673 and 0.03935
Agonist activity of 7OH analogs at rKOR (rKOR; Log [drug](M) -10): 7.8399 and 7.154 and 27.1145 and 5.225 and 8.778 and 7.65 and 0.6993 and -2.781 and 2.082
Agonist activity of 7OH analogs at rKOR (rKOR; Log [drug](M) -11): 20.1355 and 7.2112 and 5.419 and 15.9158 and 14.9773 and 3.289 and 5.031 and 2.5469 and 3.562
Agonist activity of 7OH analogs at rKOR (rKOR; Log [drug](M) -13): 2.6438 and 19.3085 and 15.1998 and 15.6888 and 12.292 and 1.7 and 4.489 and 13.3107 and 4.029
IC50 (hMOR): 920 nM
Agonist activity of 7OH analogs at hDOR (hDOR; Log[drug] (M) -5): 17.1397 and 15.6735 and 17.1747 and 8.18 and -3.544 and 1.305 and 21.6642 and 15.0671 and 20.6929
Agonist activity of 7OH analogs at hDOR (hDOR; Log[drug] (M) -6): 30.6083 and 25.9231 and 32.3513 and 1.677 and 12.7082 and 9.625 and 17.2797 and 6.922 and 2.636
Agonist activity of 7OH analogs at hDOR (hDOR; Log[drug] (M) -7): 15.9329 and 22.4846 and 15.3548 and 1.086 and 2.267 and 6.255 and -1.22 and -1.151 and 2.37
Agonist activity of 7OH analogs at hDOR (hDOR; Log[drug] (M) -8): 13.6904 and 16.1168 and 10.9974 and 2.935 and -7.546 and 4.612 and 5.7671 and 0.4715 and 17.0267
Agonist activity of 7OH analogs at hDOR (hDOR; Log[drug] (M) -9): 23.852 and 14.4843 and 22.6626 and 18.4578 and 15.1232 and 4.553 and 18.1791 and 11.0147 and 18.7534
Agonist activity of 7OH analogs at hDOR (hDOR; Log[drug] (M) -10): 5.724 and 19.2021 and 4.266 and 3.553 and -1.827 and 11.1585 and 2.694 and 3.131 and 7.14
Agonist activity of 7OH analogs at hDOR (hDOR; Log[drug] (M) -11): 7.339 and 12.4107 and 20.099 and 7.6883 and 4.754 and 8.248 and 8.188 and 1.326 and 2.427
Agonist activity of 7OH analogs at hDOR (hDOR; Log[drug] (M) -13): -6.485 and 2.218 and 4.267 and 9.369 and -0.6447 and 11.9855 and 0.02092 and 7.539 and 4.083
Emax (hDOR; hDOR cAMP BRET, positive control DPDPE): very low efficacy
IC50 (mMOR [1]): 320 nM
Antagonist activity at mMOR, raw signal (single replicate values) (mMOR [1]; Log[drug] (M) -5): 0.05136 and 0.05514 and 0.02734 and 0.03399 and 0.05638 and 0.03174 and 0.0604 and 0.04123 and 0.04243
Antagonist activity at mMOR, raw signal (single replicate values) (mMOR [1]; Log[drug] (M) -6): 0.06527 and 0.08059 and 0.08038 and 0.07596 and 0.06694 and 0.07308 and 0.08894 and 0.05009 and 0.07552
Antagonist activity at mMOR, raw signal (single replicate values) (mMOR [1]; Log[drug] (M) -7): 0.171 and 0.1656 and 0.1405 and 0.1722 and 0.164 and 0.1548 and 0.1502 and 0.1538 and 0.167
Antagonist activity at mMOR, raw signal (single replicate values) (mMOR [1]; Log[drug] (M) -8): 0.2056 and 0.1941 and 0.1944 and 0.1853 and 0.1938 and 0.208 and 0.1628 and 0.1712 and 0.1714
Antagonist activity at mMOR, raw signal (single replicate values) (mMOR [1]; Log[drug] (M) -9): 0.1978 and 0.1907 and 0.2036 and 0.185 and 0.2114 and 0.2034 and 0.1755 and 0.1681 and 0.1723
Antagonist activity at mMOR, raw signal (single replicate values) (mMOR [1]; Log[drug] (M) -10): 0.2063 and 0.2294 and 0.2076 and 0.2027 and 0.2013 and 0.2029 and 0.1793 and 0.1909 and 0.175
Antagonist activity at mMOR, raw signal (single replicate values) (mMOR [1]; Log[drug] (M) -11): 0.1963 and 0.2104 and 0.2086 and 0.1881 and 0.2054 and 0.206 and 0.1763 and 0.1632 and 0.1788
cAMP % (mMOR [2]; Log[drug] (M) -5): 6.435% and 6.384% and 16.5545% and 12.4027% and 11.5958% and 9.171% and 11.6377% and 17.8045% and 15.1324%
cAMP % (mMOR [2]; Log[drug] (M) -6): 18.6614% and 4.689% and 11.9914% and 8.341% and 7.121% and 7.194% and 11.7839% and 2.54% and 3.967%
cAMP % (mMOR [2]; Log[drug] (M) -7): 11.7629% and -2.4507% and 10.3244% and 12.5872% and 11.439% and 4.6796% and 1.65% and 1.082% and 0.9258%
cAMP % (mMOR [2]; Log[drug] (M) -8): -5.129% and 6.21% and -1.081% and 7.275% and 2.298% and 9.574% and 9.25% and -4.751% and 0.6222%
cAMP % (mMOR [2]; Log[drug] (M) -9): 2.051% and -8.733% and 10.4525% and -1.843% and 3.825% and 12.7464% and 9.611% and 1.736% and 14.7967%
cAMP % (mMOR [2]; Log[drug] (M) -10): -1.957% and 12.894% and -4.791% and 0.07219% and 0.3304% and -0.4025% and -1.324% and -2.101% and 5.511%
cAMP % (mMOR [2]; Log[drug] (M) -11): 22.2971% and -9.038% and -0.05376% and 20.8701% and 7.205% and 16.4135% and 3.836% and -1.905% and 3.566%
cAMP % (mMOR [2]; Log[drug] (M) -13, cAMP inhibition as % of DAMGO): -0.5682% and 13.1006% and 15.0829% and 7.325% and 4.046% and 5.291% and 0.9156% and 1.033% and -1.949%
Emax (mMOR [2]; maximal inhibitory effect on cAMP levels relative to DAMGO): 13%
EC50 (mMOR [2]; n = 3, read-out: EC50): 841 nM
